This is an account of results in US6423744B1, “Method of diminishing the adverse effects of interleukin-2” (Biomedicines, Inc., priority 1998, dated 2002).

For data set [1], the system named is IL-2-induced reduction in oxygenation. Conditions: rat.
Protocol: Animals were weighed on the day of dosing and the appropriate doses of IL-2 and/or LA were calculated. The animals remained conscious throughout the experiment until an anesthetic was administered approximately 10 minutes before exsanguination. The anesthetic consisted of a mixture of ketamine (45 mg/ml) xylazine (2.5 mg/ml), and acepromazine (0.37 mg/ml) diluted with water and administered subcutaneously at a dose of 2.0 ml/kg.
Group 1 (n=14) consisted of control animals that received both i.v. and i.p. injections of vehicle. The other five groups received i.v. injections of IL-2 via the tail vein. Groups 2 (n=8), 3 (n=4), and 4 (n=10) received IL-2 in doses of 1.5, 6.0, and 12.5 million IU(MIU)/kg, respectively. In addition to 12.5 million IU/kg of IL-2, Groups 5 (n=8) and 6 (n=13) received i.p. injections of the LA. The LA was administered in two equal, divided doses; the first dose of LA was given 20 minutes before administration of IL-2 and the second dose was given 50 minutes after administration of IL-2. Group 5 was administered 2×10 mg/kg of the LA. Group 6 was administered 2×30 mg/kg of the LA.
Two hours after the IL-2 injection, the animals were exsanguinated via the abdominal aorta and the arterial blood was collected for measurement of PaO2.
Whole arterial blood was collected into heparinized blood arterial gas syringes. Immediately after collection, the blood sample was analyzed using PaO2 electrode model DO-166FT. Sample blood was pre-oxygenated and used as a standard before and after each test sample.
Data are shown as mean±SEM. Data were analyzed using the Tukey-Kramer test (JMP® statistical software from SAS, Inc.) Significance was defined as a p-value less than 0.05.
In data set [2] the test system is renal cell carcinoma. Conditions: IL-2 treatment alone; cited from earlier work.
Data set [3] has as its system B16/BL6 murine melanoma tumor cells. Nature of the data set: Murine model of B16 melanoma lung metastases (Example 5). The data set is classed as in vivo. The method, then: The B16/BL6 murine melanoma tumor cells for injection were obtained from in vitro culture. Mice were inoculated with 3×10^5 cells intravenously on Day 0.
Tumor cells were injected on Day 0. […] An additional group of 15 untreated control mice was used for timing the termination of the study. At Day 10, three untreated control mice were to be euthanized each day until tumor burden was determined to be optimal for counting metastatic foci, at which time the remaining rumored and five non-rumored mice were to be euthanized and lungs removed for determination of body weights, lung weights and numbers of metastatic foci.
Anti-tumor activity was assessed by counts of metastatic foci in the lungs. Comparison among the three treatment groups (Groups 1, 2 and 3) was performed using one-way ANOVA (or Kruskal-Wallis one-way analysis of variance on ranks for data with non-normal distribution) with the three between-group comparisons performed using adjustment for multiple comparisons.

Data set [4] concerns IL-2-induced toxicity. The conditions noted are these: rat, in vivo.
Protocol: (§1) Six groups of animals were studied (total N=59). […] The animals remained conscious throughout the experiment until an anesthetic was administered approximately 10 minutes before planned exsanguination. The anesthetic consisted of a mixture of ketamine (45 mg/ml), xylazine (2.5 mg/ml), and acepromazine (0.37 mg/ml) diluted with water and administered subcutaneously at a dose of 2.0 ml/kg.
(§2) IL-2 or IL-2 vehicle was administered by bolus injection via the tail vein. […] Two hours after the injection of IL-2 or IL-2 vehicle, animals were exsanguinated via the abdominal aorta and the arterial blood was collected for measurement of PaO2.
(§3) Group 1 (n=13) consisted of control animals that received injections of each vehicle, either i.v. or i.p. as appropriate. The other five groups received i.v. bolus injections of IL-2 via the tail vein. Groups 2 (n=8), 3 (n=5), and 4 (n=13) received IL-2 in doses of 1.5, 6.0, and 12.5 million IU/kg, respectively.
The study was conducted in two phases.
(§4) Whole arterial blood was collected into heparinized syringes. Immediately after collection, the blood sample was analyzed using a Lazar Research Laboratories flow-through dissolved-oxygen probe. The cell temperature was set to 37 degrees centigrade. A syringe pump was set to 0.5 ml/min to introduce the sample. The cell was zeroed using a solution of heparin and isotonic saline equilibrated with 100% nitrogen. The cell was then calibrated using a solution of heparin and isotonic saline equilibrated with 20% oxygen. After each PaO2 determination in whole blood was made, the cell was washed with heparin ad isotonic saline. A 20% O2 standard was introduced before each sample to ensure accurate and reliable measurements.
(§5) If the data appeared to be normally distributed, the comparison was to be made using Student's t-test.
The subject of data set [5] is renal cell carcinoma. Nature of the data set: Clinical trial of LA plus IL-2 in patients with renal cell carcinoma (Example 6). The data set is classed as in vivo, human. The protocol: A preferred LA compound (as defined in Example 3) from drug substance lot # BA901 was supplied as 25 mg capsules Batch # 99G111 by BioMedicines, Inc. Each hard gelatin capsule contained 25 mg LA plus excipients including lactose hydrous NF; hydroxypropylmethylcellulose 2910, 6 cps USP; sodium lauryl sulfate NF; purified water, USP; and sodium chloride.
Patients received IL-2 600,000 IU/kg by intravenous bolus three times daily during 5 days for a planned total of 14 doses. LA was administered orally 1 hour prior to each schedule dose of IL-2 as well as 8 hours after the final scheduled dose. If dose of IL-2 was withheld because of IL-2 induced toxicity, dosing with LA continued. Doses of LA ranged from 25 mg three times daily (TID) to 75 mg TID. Plasma levels of LA were obtained at each dose level.
The principal activity endpoint was the relationship between the total number of doses of IL-2 that could be administered and well tolerated by patients and the plasma levels of LA. A second endpoint was the response rate in patients of the tumor to the combination therapy with the leukotriene B4 receptor antagonist and IL-2 as judged by complete responses (total disappearance of measurable tumor) or partial responses (a ≧50% decrease in measurable tumor volume).
Data were analyzed by examining the significance of the correlation between number of doses of IL-2 and LA plasma level (Spearman's rho).

In data set [6] the test system is calcium ionophore dermal inflammation. Briefly: Inhibition of calcium ionophore dermal inflammation in the guinea pig ear. The conditions noted are these: in vivo.
For data set [7], the system named is acetic acid colonic inflammation. Nature of the data set: Inhibition of acetic acid colonic inflammation. The data set is classed as in vivo. Conditions: Rattus norvegicus, po; i.g.; read-out: Inhibition of acetic acid colonic inflammation in rats and guinea pig, ED50.
The test system of data set [8] is LTB4 chemotaxis. Nature of the data set: Inhibition of LTB4 chemotaxis in guinea pigs. The class given is in vivo. The conditions noted are these: Cavia porcellus, po; i.g.
Data set [9] concerns IL-2-induced toxicity. Nature of the data set: Rat model of IL-2-induced toxicity, PaO2 (Example 4). Conditions: Biomed 101 (20 or 60 mg/kg total i.p.) with IL-2 12.5 MIU/kg.
Protocol: as §1, §2, §3
The study was conducted in two phases.
as §4, §5
For data set [10], the system named is LTA4 conversion into LTB4. Nature of the data set: Inhibition of LTA4 conversion into LTB4. The class given is biochemical.
Data set [11] concerns LTB4 chemotaxis. Briefly: Inhibition of LTB4 chemotaxis (in vitro). The class given is cell-based.
The nature of data set [12]: Biomed 101 plasma levels in rats (HPLC). The class given is in vivo, Sprague Dawley rats. Conditions: rat. The method, then: In animals dosed with Biomed 101, plasma levels of Biomed 101 were assayed with a validated, high-pressure liquid chromatographic method.
Data set [13] relates to LTB4-induced neutrophil granulation. Nature of the data set: Inhibition of LTB4-induced neutrophil granulation. The data set is classed as cell-based.
The format of data set [14] is in vivo. Conditions: intraperitoneal, bid for 4 days, tumored mice treated with IL-2; preliminary study.
The subject of data set [15] is human neutrophil adhesion to LTB4-stimulated umbilical vein endothelial cells. Nature of the data set: Inhibition of human neutrophil adhesion to LTB4-stimulated umbilical vein endothelial cells. The data set is classed as cell-based.
Data set [16] concerns 12 (R)-HETE. Nature of the data set: Inhibition of 12 (R)-HETE in guinea pigs. The conditions noted are these: Cavia porcellus, po; i.g. The class given is in vivo.
For data set [17], the system named is LTB4 synthesis. Nature of the data set: Inhibition of LTB4 synthesis. The data set is classed as biochemical.

As to “des-alanyl-1, serine-125 human interleukin-2 [IL-2]”, in data set [1] (in vivo, iv), the “arterial oxygen level (PaO2), mean±SEM” value is on record as 77.5±2.5 mm Hg and the “effect of progressively higher doses on arterial oxygen levels” value is “progressively reduced”. For the same molecule, the “objective response rate historically noted” value in data set [2] is 8-10%. Also, the “Median Lung Weight” value in data set [3] (Day 10, vehicle control 174) is given as 177 mg. For the same molecule, the “lung weights compared with vehicle control” value in data set [3] (Kruskal-Wallis) was “did not decrease”. The deaths result in [3] (mice, Group 2, IL-2 1 mg/kg iv, Day 4) is “one death”. Also, the “Changes in Metastases (mean) (N)” value in data set [3] (treated group compared with control (untreated) group) is recorded as −32 N. In addition, in [4], the “Change in Oxygen (mean) (mm Hg)” value is listed as −15 mm Hg, the “decrease of mean PaO2 for each increase of 1 MIU/kg in IL-2 administered” value was “approximately 1.8 mm Hg” and the “effect on PaO2” value is “significant fall”.
`CCCc1c(OCCCOc2ccc(C(C)=O)c(OC)c2CCC)ccc2c1OC(C(=O)O)CC2` (racemic) [Biomed 101, (±)7-[3-(4-acetyl-3-methoxy-2-propylphenoxy)propoxy]-3,4-dihydro-8-propyl-2H-1-benzopyran-2-carboxylic acid]: in data set [5], the “number of doses of IL-2 withheld because of IL-2 toxicity as plasma level of LA increased” value is on record as “decreased”. In addition, in data set [5], the “total number of doses of IL-2 well tolerated as LA dose and plasma level rose” value is reported as “rose”. In addition, in data set [5] (25 mg TID to 75 mg TID orally), the “plasma level of LA with total daily dose” value is on record as “increased”. Further, the “Inhibition of calcium ionophore dermal inflammation in the guinea pig ear, ED50” value in [6] was 0.7 mg/ear. Besides, the median effective dose (ED50) was found to be 20 mg/kg in [7], 0.6 mg/kg in [8] and 20 mg/kg in [16]. The “Median PaO2 versus IL-2 alone” value in [9] is on record as “significantly higher”. For the same molecule, the “Median PaO2 versus control animals” value in [9] is “not significantly different”. In addition, the “effect of LA on the reduction in oxygenation induced by IL-2” value in data set [1] (LA 2×10 or 2×30 mg/kg i.p. with IL-2 12.5 MIU/kg i.v., p>0.5 vs control, p<0.001 vs IL-2 alone) is “mitigated”. Besides, the IC50 in data set [10] turned out to be 20 µM; in data set [17], 2.1 µM. Further, in data set [11], the “Inhibition of LTB4 chemotaxis, range” value is 0.3 to 3.0 µM. The “mean plasma level (± standard error of the mean) of Biomed 101” value was 2.0 (±0.26) μg/ml in data set [12] (20 mg/kg Biomed 101 i.p. (2×10 mg/kg)) and 6.4 (±0.89) μg/ml in [12] (60 mg/kg Biomed 101 i.p. (2×30 mg/kg)). The “Inhibition of LTB4-induced neutrophil granulation, range” value in [13] lay in the range of 1 to 3 µM. This molecule came in with a highest tolerated dose in data set [14] of 25 mg/kg bid. Moreover, in data set [3] (Day 10, IL-2 1 mg/kg iv, Biomed 101 25 mg/kg ip with IL-2, q6hx2, qdx4, vehicle control 98), the “Number of lung mets Mean (± SEM)” value is on record as 56. For the same molecule, the “effect of coadministration on the anti-tumor activity of IL-2” value in data set [3] (mice, Biomed 101 25 mg/kg ip with IL-2) is “fully preserves and may enhance”. In addition, in data set [15], the “Inhibition of human neutrophil adhesion to LTB4-stimulated umbilical vein endothelial cells, range” value is 0.3 to 1.0 µM.
